Laboratory results reported in patent publication US20090082399A1, “Carbamate derivatives as positive allosteric modulators of metabotropic glutamate receptors” (Addex Pharma SA, priority 2005, published 2009).

Assays:
[1] = target: T1, mGluR5 (Rattus norvegicus, UniProt P31424); settings: cited from earlier work
T1 construct: positive allosteric modulators of mGluR5 receptors in native preparations; endogenous in cells; host or cells: primary cortical astrocytes from Sprague-Dawley rat embryos (E16-19)

[2] = target: T2, rat mGluR5 (Rattus norvegicus, UniProt P31424); assay: mGluR5 assay on HEK-expressing rat mGluR5 (fluorescent cell based Ca2+ mobilization assay); settings: for activation of rat mGluR5 receptors without co-addition of glutamate: HEK-rat mGluR5 cell line, no added glutamate or mGluR5 agonist; for EC50: HEK-293 cells stably expressing rat mGluR5, no co-addition of glutamate, mean of at least three independent experiments in duplicate, read-out: Ca2+ Flux (mean EC50)
T2 construct: expressed in transfected cells
Experimental: Positive functional expression of HEK-293 cells stably expressing rat mGluR5 receptor was determined by measuring intracellular Ca^2+ changes using a Fluorometric Imaging Plate Reader (FLIPR, Molecular Devices, Sunnyvale, Calif.) in response to glutamate or selective known mGluR5 agonists and antagonists. Rat mGluR5 RT-PCR products in HEK-293 cells were sequenced and found 100% identical to rat mGluR5 Genbank reference sequence (NM_017012). HEK-293 cells expressing mGluR5 were maintained in media containing DMEM, dialyzed Fetal Bovine Serum (10%), Glutamax™ (2 mM), Penicillin (100 units/ml), Streptomycin (100 μg/ml), Geneticin (100 μg/ml) and Hygromycin-B (40 μg/ml) at 37° C./5% CO2.
After one day of incubation, cells were washed with assay buffer containing: 142 mM NaCl, 6 mM KCl, 1 mM […], 1 mM CaCl2, 20 mM HEPES, 1 g/L glucose, 0.125 mM sulfinpyrazone, pH 7.4. After 60 min of loading with 4 uM Fluo-4 (TefLabs, Austin, Tex.), the cells were washed three times with 50 μl of PBS Buffer and resuspended in 45 μl of assay Buffer. The plates were then transferred to a Fluorometric Imaging Plate Reader (FLIPR, Molecular Devices, Sunnyvale, Calif.) for the assessment of intracellular calcium flux. After monitoring the baseline fluorescence for 10 seconds, increasing concentrations of representative compound (from 0.01 to 60 μM) of the present invention diluted in Assay Buffer (15 μl of 4× dilutions) was added to the cell. The final DMSO concentration in the assay was 0.3%. In each experiment, fluorescence was then monitored as a function of time for 3 minutes and the data analyzed using Microsoft Excel and GraphPad Prism. Each data point was also measured two times.
Under these experimental conditions, this HEK-rat mGluR5 cell line is able to directly detect positive allosteric modulators without the need of co-addition of glutamate or mGluR5 agonist.
The concentration-response curves of representative compounds of the present invention were generated using the Prism GraphPad software (Graph Pad Inc, San Diego, USA). The curves were fitted to a four-parameter logistic equation:
(Y=Bottom+(Top−Bottom)/(1+10̂((Log EC50−X)*Hill Slope)
allowing determination of EC50 values.
The Table 1 below represents the mean EC50 obtained from at least three independent experiments of selected molecules performed in duplicate.

[3] = target: T1, mGluR5; assay: mGluR5 binding assay ([3H]-MPEP, rat brain membranes); settings: 3 nM [3H]-MPEP, rat cortex membranes, 1 h at 4° C.; read-out: IC50, inhibition of [3H]-MPEP binding
Description: Activity of compounds of the invention was examined following a radioligand binding technique using whole rat brain and tritiated 2-methyl-6-(phenylethynyl)-pyridine ([^3H]-MPEP) as a ligand following similar methods than those described in Gasparini F. et al. (2002) Bioorg. Med. Chem. Lett., 12, 407-409 and in Anderson J. F. et al. J. Pharmacol. Exp. Ther. 2002, 303, 3, 1044-1051.
Cortices were dissected out from brains of 200-300 g Sprague-Dawley rats (Charles River Laboratories, L'Arbresle, France). Tissues were homogenized in 10 volumes (vol/wt) of ice-cold 50 mM Hepes-NaOH (pH 7.4) using a Polytron disrupter (Kinematica AG, Luzern, Switzerland) and centrifuged for 30 min at 40,000 g. (4° C.). […] Protein concentration was determined by the Bradford method (Bio-Rad protein assay, Reinach, Switzerland) with bovine serum albumin as standard.
Membranes were thawed and resuspended in binding buffer containing 20 mM HEPES-NaOH, 3 mM MgCl2, 3 mM CaCl2, 100 mM NaCl, pH 7.4. […] Radioactivity was determined by liquid scintillation spectrometry using a 96-well plate reader (TopCount, Perkin-Elmer, Downers Grove, USA).
The inhibition curves were generated using the Prism GraphPad program (Graph Pad Software Inc, San Diego, USA). […] The mean of IC50 obtained from at least three independent experiments of selected molecules performed in duplicate were calculated.

T1 sequence (P31424 21-1203): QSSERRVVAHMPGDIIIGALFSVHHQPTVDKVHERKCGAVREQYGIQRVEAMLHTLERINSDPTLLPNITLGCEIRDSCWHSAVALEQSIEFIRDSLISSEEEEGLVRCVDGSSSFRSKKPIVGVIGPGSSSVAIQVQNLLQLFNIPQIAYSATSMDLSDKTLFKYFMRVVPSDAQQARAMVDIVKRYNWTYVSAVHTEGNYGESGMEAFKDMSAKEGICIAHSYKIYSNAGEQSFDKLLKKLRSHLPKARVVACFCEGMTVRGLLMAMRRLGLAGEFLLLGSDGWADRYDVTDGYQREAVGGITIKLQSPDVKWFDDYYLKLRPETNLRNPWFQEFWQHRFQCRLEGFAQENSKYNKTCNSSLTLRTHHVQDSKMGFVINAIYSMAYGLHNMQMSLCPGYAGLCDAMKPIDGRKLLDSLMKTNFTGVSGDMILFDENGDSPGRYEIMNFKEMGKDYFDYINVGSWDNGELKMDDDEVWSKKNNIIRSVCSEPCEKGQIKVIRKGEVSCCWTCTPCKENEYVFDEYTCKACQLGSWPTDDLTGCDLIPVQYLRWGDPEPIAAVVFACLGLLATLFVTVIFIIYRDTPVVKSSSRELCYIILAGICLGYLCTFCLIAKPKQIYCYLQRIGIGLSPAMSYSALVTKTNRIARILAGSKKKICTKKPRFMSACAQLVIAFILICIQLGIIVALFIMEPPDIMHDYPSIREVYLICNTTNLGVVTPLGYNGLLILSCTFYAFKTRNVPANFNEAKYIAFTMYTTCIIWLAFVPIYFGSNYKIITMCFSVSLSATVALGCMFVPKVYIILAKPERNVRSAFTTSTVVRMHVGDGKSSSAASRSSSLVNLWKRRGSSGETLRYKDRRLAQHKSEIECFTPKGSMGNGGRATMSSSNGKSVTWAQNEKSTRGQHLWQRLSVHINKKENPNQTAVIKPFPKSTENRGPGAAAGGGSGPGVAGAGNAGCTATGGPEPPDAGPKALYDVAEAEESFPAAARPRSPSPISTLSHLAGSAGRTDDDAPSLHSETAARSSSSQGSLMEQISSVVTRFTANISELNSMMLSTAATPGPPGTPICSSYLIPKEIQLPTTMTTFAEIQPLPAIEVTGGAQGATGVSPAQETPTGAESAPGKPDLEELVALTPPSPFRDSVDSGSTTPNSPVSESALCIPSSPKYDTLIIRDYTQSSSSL
T2 sequence (P31424 21-1171 isoform P31424-2 limits assumed): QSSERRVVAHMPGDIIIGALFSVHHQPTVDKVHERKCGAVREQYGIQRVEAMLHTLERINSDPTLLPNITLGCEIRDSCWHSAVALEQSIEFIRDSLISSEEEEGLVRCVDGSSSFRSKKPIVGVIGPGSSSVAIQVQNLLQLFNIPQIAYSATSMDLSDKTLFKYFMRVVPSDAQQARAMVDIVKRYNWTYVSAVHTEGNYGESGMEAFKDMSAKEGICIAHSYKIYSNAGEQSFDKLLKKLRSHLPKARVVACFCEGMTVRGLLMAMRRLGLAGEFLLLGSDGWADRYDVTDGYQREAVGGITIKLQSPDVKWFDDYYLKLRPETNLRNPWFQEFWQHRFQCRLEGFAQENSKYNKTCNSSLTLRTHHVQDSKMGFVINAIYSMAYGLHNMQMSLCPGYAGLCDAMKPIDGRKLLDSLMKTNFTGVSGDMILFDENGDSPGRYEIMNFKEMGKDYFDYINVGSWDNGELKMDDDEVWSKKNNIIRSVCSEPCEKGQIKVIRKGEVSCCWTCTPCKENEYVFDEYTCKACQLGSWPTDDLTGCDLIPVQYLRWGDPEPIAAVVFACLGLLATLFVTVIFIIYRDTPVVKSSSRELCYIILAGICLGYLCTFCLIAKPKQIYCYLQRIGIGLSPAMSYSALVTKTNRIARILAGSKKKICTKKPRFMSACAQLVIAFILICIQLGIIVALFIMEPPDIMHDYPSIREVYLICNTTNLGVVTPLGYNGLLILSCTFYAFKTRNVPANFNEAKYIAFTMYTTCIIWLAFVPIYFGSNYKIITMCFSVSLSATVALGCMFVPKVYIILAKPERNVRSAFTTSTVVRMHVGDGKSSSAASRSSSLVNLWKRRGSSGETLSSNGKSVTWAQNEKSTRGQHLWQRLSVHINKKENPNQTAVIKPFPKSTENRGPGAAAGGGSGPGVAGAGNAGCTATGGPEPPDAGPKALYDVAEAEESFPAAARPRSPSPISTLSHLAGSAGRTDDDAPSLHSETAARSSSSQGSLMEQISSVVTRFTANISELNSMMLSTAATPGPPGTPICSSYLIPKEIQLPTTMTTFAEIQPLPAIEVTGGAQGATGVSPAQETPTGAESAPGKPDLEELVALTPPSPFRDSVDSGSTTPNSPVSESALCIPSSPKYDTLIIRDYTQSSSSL

N#Cc1cccc(C(=O)Nc2cc(-c3ccccc3)nn2-c2ccccc2)c1 [CDPPB, reference compound]
activity in rat cortical astrocytes culture in the absence of added glutamate [1]: inactive | activation of rat mGluR5 receptors without co-addition of glutamate [2]: activating

O=C(Nc1ccc(Cl)cc1CN1C(=O)c2ccccc2C1=O)c1ccccc1O [CPPHA, reference compound]
activity in rat cortical astrocytes culture in the absence of added glutamate [1]: inactive | activation of rat mGluR5 receptors without co-addition of glutamate [2]: activating

Fc1cccc(/C=N/N=C/c2cccc(F)c2)c1 [DFB, reference compound]
activity in rat cortical astrocytes culture in the absence of added glutamate [1]: inactive | activation of rat mGluR5 receptors without co-addition of glutamate [2]: activating

O=C(Nc1ccc(F)cc1)O[C@H]1CCCN(C(=O)c2ccc(F)cc2)C1 [Example 1, (4-Fluoro-phenyl)-carbamic acid (S)-1-(4-fluoro-benzoyl)-piperidin-3-yl ester]
IC50 [3]: < 30000 nM | EC50 [2]: 1000 to 10000 nM

O=C(Nc1ccc(Cl)cc1)O[C@H]1CCCN(C(=O)c2ccc(F)cc2)C1 [Example 2, (4-Chloro-phenyl)-carbamic acid (S)-1-(4-fluoro-benzoyl)-piperidin-3-yl ester]
EC50 [2]: 1000 to 10000 nM

COc1ccc(NC(=O)O[C@H]2CCCN(C(=O)c3ccc(F)cc3)C2)cc1 [Example 3, (4-Methoxy-phenyl)-carbamic acid (S)-1-(4-fluoro-benzoyl)-piperidin-3-yl ester]
EC50 [2]: 1000 to 10000 nM

O=C(Nc1ccccc1)O[C@H]1CCCN(C(=O)c2ccc(F)cc2)C1 [Example 4, Phenyl-carbamic acid (S)-1-(4-fluoro-benzoyl)-piperidin-3-yl ester]
EC50 [2]: < 1000 nM

O=C(Nc1cccc(F)c1)O[C@H]1CCCN(C(=O)c2ccc(F)cc2)C1 [Example 5, (3-Fluoro-phenyl)-carbamic acid (S)-1-(4-fluoro-benzoyl)-piperidin-3-yl ester]
EC50 [2]: < 1000 nM

O=C(Nc1ccccc1F)O[C@H]1CCCN(C(=O)c2ccc(F)cc2)C1 [Example 6, (2-Fluoro-phenyl)-carbamic acid (S)-1-(4-fluoro-benzoyl)-piperidin-3-yl ester]
EC50 [2]: < 1000 nM

O=C(NC1CCCC1)O[C@H]1CCCN(C(=O)c2ccc(F)cc2)C1 [Example 7, Cyclopentyl-carbamic acid (S)-1-(4-fluoro-benzoyl)-piperidin-3-yl ester]
EC50 [2]: > 10000 nM

O=C(NC1CCCCC1)O[C@H]1CCCN(C(=O)c2ccc(F)cc2)C1 [Example 8, Cyclohexyl-carbamic acid (S)-1-(4-fluoro-benzoyl)-piperidin-3-yl ester]
EC50 [2]: 1000 to 10000 nM

O=C(Nc1ccncc1)O[C@H]1CCCN(C(=O)c2ccc(F)cc2)C1 [Example 9, Pyridin-4-yl-carbamic acid (S)-1-(4-fluoro-benzoyl)-piperidin-3-yl ester]
EC50 [2]: 1000 to 10000 nM

O=C(NCc1ccc(F)cc1)O[C@H]1CCCN(C(=O)c2ccc(F)cc2)C1 [Example 10, (4-Fluoro-benzyl)-carbamic acid (S)-1-(4-fluoro-benzoyl)-piperidin-3-yl ester]
EC50 [2]: 1000 to 10000 nM

O=C(Nc1ccc(F)cc1)N[C@H]1CCCN(C(=O)c2ccc(F)cc2)C1 [Example 11, 1-[(S)-1-(4-Fluoro-benzoyl)-piperidin-3-yl]-3-(4-fluoro-phenyl)-urea]
melting point: 228 to 231 °C | EC50 [2]: 1000 to 10000 nM

O=C(Nc1ccccc1)OC1CCN(C(=O)c2ccc(F)cc2)C1 (stereo not drawn) [Example 12, (Phenyl)-carbamic acid-1-(4-fluoro-benzoyl)-pyrrolidin-3-yl ester]
melting point: 173 to 175 °C | EC50 [2]: 1000 to 10000 nM
